Where a SMILES comes first, the peptide text is derived from it.
Legend:
[1] = Toxicity test, subcutaneous injection; assay type: in vivo
Protocol: pGlu-Asn-Ser-Pro-Arg-Gly-NH2 acetate was subcutaneously injected to a SD strain rat at a dose of 1 mg/kg.

[2] = system: cells of rat cerebral cortex; test: Action on glutamate-induced neurocyte disorder (in vitro), propidium iodide staining; assay type: cell-based; conditions: for inhibitory action against neuronal death induced by glutamate: 4 day treatment, glutamate 1 mM
Protocol: The cerebral cortex of rat (0-day-old) was incubated at 37°C in a Hank's solution containing 1.5 mg/mL of dispase, and then cells were isolated. The neurocytes were dispersed on a poly-L-lysine-coated multiple well plate at a density of approx. 4 x 10^4 cells/cm^2, and then to the plate was added cytosine-β-arabinofuranoside (20 µM). The nerocytes were cultured on the plate for 4 days.
The nerocytes were identified by indirect fluorescent method using a neuro-filament antibody
The cultured neurocytes were washed with a Hank's solution and further incubated at 37°C for 30 minutes under atmospheric conditions. Incubated neurocytes were again incubated for 10 minutes in a Hank's solution containing glutamate. Then, they were washed, and further incubated for one hour. At 15 minutes before the incubation was complete, propidium iodide (4.6 µg/mL) was added. After the incubations were complete, the incubated neurocytes were washed with PBS (phosphate buffer solution containing sodium chloride), and then observed using fluorescence microscope.
The pGlu-Asn-Ser-Pro-Arg-Gly-NH2 acetate or AVP(4-9) was added to the 4 day-cultured solution prior to the glutamate treatment.

Compound: N=C(N)NCCC[C@H](NC(=O)[C@@H]1CCCN1C(=O)[C@H](CO)NC(=O)[C@H](CC(N)=O)NC(=O)[C@@H]1CCC(=O)N1)C(=O)NCC(N)=O [pGlu-Asn-Ser-Pro-Arg-Gly-NH2 acetate] (HELM PEPTIDE1{[Glp].N.S.P.R.G.[am]}$$$$V2.0)
- changes observed after subcutaneous injection ([1]; rat, in vivo, sc, 1 mg/kg): No noticeable changes were observed
- inhibitory action against neuronal death induced by glutamate ([2]; 0.1 nM test substance): showed an inhibitory action
- inhibitory action against neuronal death induced by glutamate ([2]; 1 nM test substance): showed an inhibitory action
- inhibitory action against glutamate toxicity in the presence of V1 receptor antagonist [Pmp^1, Tyr(Me)^2]AVP ([2]; [Pmp^1, Tyr(Me)^2]AVP 0.1 nM): reduced
- inhibitory action against glutamate toxicity in the presence of V1 receptor antagonist [Pmp^1, Tyr(Me)^2]AVP ([2]; [Pmp^1, Tyr(Me)^2]AVP 1 nM): reduced

Compound: N=C(N)NCCC[C@H](NC(=O)[C@@H]1CCCN1C(=O)[C@H](CO)NC(=O)[C@H](CC(N)=O)NC(=O)[C@@H]1CCC(=O)N1)C(=O)NCC(N)=O [pGlu-Asn-Ser-Pro-Arg-Gly-NH2] (HELM PEPTIDE1{[Glp].N.S.P.R.G.[am]}$$$$V2.0)
- toxicity in the conventional toxicity test ([1]; summary statement): no specific toxicity

Compound: [pGlu^4, Cyt^5] AVP (4-9) [AVP(4-9), reference compound]
- inhibition of the glutamate-induced neuronal death ([2]; 1 µM test substance): inhibited
- inhibition of the glutamate-induced neuronal death ([2]; 10 µM test substance): inhibited
